Data on 17 molecules can be found in patent publication US7812022B2 (GlaxoSmithKline LLC, priority 2004, dated 2010).

Experiment [1] has as its system Colo205 tumor cell lines. The experiment in a line: Methylene blue growth inhibition assay (cellular Method A), Colo205. Particulars: Homo sapiens, COLO 205, 72 h, 3 days, read-out: Activity (Method): growth inhibition IC50 class. Format: cell-based, Human. As to the method: Human breast (BT474) and head and neck (HN5) were cultured in low glucose DMEM (Life Technologies 12320-032) containing 10% fetal bovine serum (FBS). Human colon tumor cells (Colo205) were cultured in DMEM (Invitrogen, 10564) containing 10% FBS. The SV40 transformed human mammary epithelial cell line HB4a was transfected with either human H-ras cDNA (HB4a r4.2) or the human c-ErbB2 cDNA (HB4a c5.2). The HB4a clones were cultured in RPMI containing 10% FBS, insulin (5 g/mL), hydrocortisone (5 g/mL), supplemented with the selection agent hygromycin B (50 g/mL). All lines were grown in a humidified incubator at 37° C. in 95% air, 5% CO2. Cells were harvested using trypsin/EDTA, counted using a haemocytometer, and plated in 100 microliters of the appropriate media, at the following densities, in a 96-well tissue culture plate (Falcon 3075): BT474 10,000 cells/well, HN5 3,000 cells/well. The next day, compounds were diluted in DMEM containing […] gentamicin, at twice the final required concentration, from 10 mM stock solutions in DMSO. 100 microliters/well of these dilutions were added to the 100 microliters of media currently on the cell plates. Medium containing 0.6% DMSO was added to control wells. Compounds diluted in DMEM were added to all cell lines. The final concentration of DMSO in all wells was 0.3%. Cells were returned to the incubator (37° C., 10% CO2) for 3 days. Medium was then removed by aspiration. Cell biomass was estimated by staining cells with 90 microliters per well methylene blue (Sigma M9140, 0.5% in 1:1 ethanol:water), and incubation at rt for at least 30 minutes. Stain was removed, and the plates rinsed by immersion in deionized water and air-dried. To release stain from the cells 100 microliters of solubilization solution was added (1% N-lauroyl sarcosine, Sodium salt, Sigma L5125, in PBS), and plates were shaken gently for about 30 minutes. Optical density at 620 nm was measured on a microplate reader. Percent inhibition of cell growth was calculated relative to vehicle treated control wells. Concentration of compound that inhibits 50% of control cell growth (IC50) was interpolated using nonlinear regression (Levenberg-Marquardt) and the equation, y=Vmax*(1−(x/(K+x)))+Y2, where “K” was equal to the IC50. Method B: Celltiter Glo® Growth Inhibition Assays

Experiment [2] concerns BT474 and HN5 tumor cell lines. Briefly: Methylene blue growth inhibition assay (cellular Method A). Format: cell-based, Human. Particulars: Homo sapiens, BT-474, 72 h, 3 days, read-out: Activity (Method): growth inhibition IC50 class. The method in brief:
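Colo205, BT474 and HN5 cells in DMEM/10% FBS (BT474 10,000, HN5 3,000 cells/well) treated next day with compound in DMEM, 0.3% final DMSO, for 3 days at 37° C. Biomass stained with methylene blue, solubilized, read at OD 620; IC50 interpolated by nonlinear regression from % inhibition versus vehicle.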

Experiment [3] has as its target T1, ErbB2 or EGFR.
T1 construct: enzymes purified from a baculovirus expression system; Reagent production was conducted essentially as described in Brignola, P. S., et al, (2002) J. Biol. Chem. 277(2): 1576-1585
The experiment in a line: ErbB family substrate phosphorylation enzyme assay (HTRF), Method A or Method B. Format: biochemical. The method in brief: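 Baculovirus-expressed EGFR or ErbB2 (0.8 or 10 nM in enzyme mix) phosphorylates biotinylated Peptide C with 20 µM ATP and 0.8 µM peptide (substrate-mix levels), MnCl2, pH 7.5. Reaction ran 90 min at 20 °C with EDTA stop and HTRF anti-phosphotyrosine read. Method A: enzyme added last; Method B: 1 h enzyme–compound preincubation.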

Setting [4] is: Method A: substrate mix added first, reaction started with enzyme mix.
Where [5] appears, read: Method B: enzyme mix pre-incubated with compound 1 hour at 20° C., started with substrate mix.

Where only a bound is given, the exact number is not on record here.

Broadly, the IC50 is the concentration that inhibits the measured activity by half. Regarding `NC(=O)c1ccc(Nc2nccc(-c3c(-c4cccc(NC(=O)c5c(F)cccc5F)c4)nn4ccccc34)n2)cc1` [Example 104, N-{3-[3-(2-{[4-(Aminocarbonyl)phenyl]amino}-4-pyrimidinyl)pyrazolo[1,5-a]pyridin-2-yl]phenyl}-2,6-difluorobenzamide-ethane (1:1)], the IC50 in experiment [1] was 100 to 1000 nM; in experiment [2] it was < 100 nM.

Regarding `Cc1ccsc1C(=O)Nc1cccc(-c2nn3ccccc3c2-c2ccnc(Nc3ccccc3)n2)c1` [Example 145, 3-Methyl-N-(3-{3-[2-(phenylamino)-4-pyrimidinyl]pyrazolo[1,5-a]pyridin-2-yl}phenyl)-2-thiophenecarboxamide], the “Activity (Method): pIC50 class against ErbB2 or EGFR” value (“Activity (Method): pIC50 class” for short) in experiment [3] (setting [4]) is “+++ (A) (at least one pIC50 measurement of greater than 7 against either ErbB2 or EGFR)”. Besides, the IC50 in experiment [2] is < 100 nM.

`O=C(Nc1cccc(-c2nn3ccccc3c2-c2ccnc(Nc3ccc(N4CCOCC4)c(F)c3)n2)c1)c1c(F)cccc1F` [Example 99, 2,6-Difluoro-N-{3-[3-(2-{[3-fluoro-4-(4-morpholinyl)-phenyl]amino}-4-pyrimidinyl)pyrazolo[1,5-a]pyridin-2-yl]phenyl}benzamide]: in experiment [3] (setting [4]), the “Activity (Method): pIC50 class” value was “+++ (A) (at least one pIC50 measurement of greater than 7 against either ErbB2 or EGFR)”. The IC50 in experiment [2] was < 100 nM.

In the case of `O=C(Nc1cccc(-c2nn3c(C(F)(F)F)cccc3c2-c2ccnc(Nc3cccc(F)c3)n2)c1)c1c(F)cccc1F` [Example 153, N-[3-(3-{2-[3-Fluorophenylamino]-4-pyrimidinyl}-7-trifluoropyrazolo[1,5-b]pyridin-2-yl)phenyl]-2,6-difluorobenzamide], the “Activity (Method): pIC50 class” value in experiment [3] (setting [5]) is “+++ (B) (at least one pIC50 measurement of greater than 7 against either ErbB2 or EGFR)”. Also, the IC50 in experiment [2] fell in the range of 100 to 1000 nM.

As to `Cc1cccc(C(=O)Nc2cccc(-c3nn4ccccc4c3-c3ccnc(Nc4ccccc4)n3)c2)c1` [Example 141, 3-Methyl-N-(3-{3-[2-(phenylamino)-4-pyrimidinyl]pyrazolo[1,5-a]pyridin-2-yl}phenyl)benzamide], the “Activity (Method): pIC50 class” value in experiment [3] (setting [4]) was “++ (A) (at least one pIC50 measurement greater than 6 against either ErbB2 or EGFR but no measurement greater than pIC50 of 7)”. The IC50 in experiment [2] was 100 to 1000 nM.

With `O=C(Nc1cccc(-c2nn3ccccc3c2-c2ccnc(Nc3cccc(F)c3)n2)c1)c1c(F)cccc1C(F)(F)F` [Example 13, 2-Fluoro-N-(3-{3-[2-(3-fluoro-phenylamino)-pyrimidin-4-yl]-pyrazolo[1,5-a]pyridin-2-yl}-phenyl)-6-trifluoromethyl-benzamide], the “Activity (Method): pIC50 class” value in experiment [3] (setting [5]) is given as “+++ (B) (at least one pIC50 measurement of greater than 7 against either ErbB2 or EGFR)”. The IC50 in experiment [2] was < 100 nM.

As to `N#Cc1cc(Nc2nccc(-c3c(-c4cccc(NC(=O)c5c(F)cccc5F)c4)nn4ccccc34)n2)ccc1F` [Example 88], the “Activity (Method): pIC50 class” value in experiment [3] (setting [4]) is reported as “+++ (A) (at least one pIC50 measurement of greater than 7 against either ErbB2 or EGFR)”. Moreover, the IC50 in experiment [2] is < 100 nM.

With `CN(C)C1Cc2ccc(Nc3nccc(-c4c(-c5cccc(NC(=O)c6c(F)cccc6F)c5)nn5ccccc45)n3)cc2C1` (stereo not shown) [Example 176, N-{3-[3-(2-{[2-(Dimethylamino)-2,3-dihydro-1H-inden-5-yl]amino}-4-pyrimidinyl)pyrazolo[1,5-a]pyridin-2-yl]phenyl}-2,6-difluorobenzamide], the results for the IC50 in experiment [1] and in experiment [2] were 100 to 1000 nM and < 100 nM, respectively.

On to `O=C(Nc1cccc(-c2nn3ccccc3c2-c2ccnc(Nc3cccc(F)c3)n2)c1)c1ccc(F)cc1Cl` [Example 20, 2-Chloro-4-fluoro-N-(3-{3-[2-(3-fluoro-phenylamino)-pyrimidin-4-yl]-pyrazolo[1,5-a]pyridin-2-yl}-phenyl)-benzamide], for which the “Activity (Method): pIC50 class” value in experiment [3] (setting [5]) was “++ (B) (at least one pIC50 measurement greater than 6 against either ErbB2 or EGFR but no measurement greater than pIC50 of 7)”. Also, the IC50 in experiment [2] fell in the range of 100 to 1000 nM.

Turning to `O=C(Nc1cccc(-c2nn3ccccc3c2-c2ccnc(Nc3ccc4cnccc4c3)n2)c1)c1c(F)cccc1F` [Example 65, 2,6-Difluoro-N-(3-{3-[2-(6-isoquinolinylamino)-4-pyrimidinyl]pyrazolo[1,5-a]pyridin-2-yl}phenyl)benzamide], in experiment [3] (setting [5]), the “Activity (Method): pIC50 class” value is “++ (B) (at least one pIC50 measurement greater than 6 against either ErbB2 or EGFR but no measurement greater than pIC50 of 7)”. The IC50 in experiment [2] was > 1000 nM.

For `O=C(Nc1cccc(-c2nn3ccccc3c2-c2ccnc(Nc3cccc(-c4cnco4)c3)n2)c1)c1c(F)cccc1F` [Example 35, 2,6-Difluoro-N-{3-[3-(2-{[3-(1,3-oxazol-5-yl)phenyl]amino}-4-pyrimidinyl)pyrazolo[1,5-a]pyridin-2-yl]phenyl}benzamide], the “Activity (Method): pIC50 class” value in experiment [3] (setting [5]) was “+++ (B) (at least one pIC50 measurement of greater than 7 against either ErbB2 or EGFR)”. The IC50 in experiment [2] was < 100 nM.

Turning to `O=C(Nc1cccc(-c2nn3ccccc3c2-c2ccnc(Nc3cccc(F)c3)n2)c1)c1ccc(F)cc1` [Example 15, 4-Fluoro-N-(3-{3-[2-(3-fluoro-phenylamino)-pyrimidin-4-yl]-pyrazolo[1,5-a]pyridin-2-yl}-phenyl)-benzamide], in experiment [3] (setting [5]), the “Activity (Method): pIC50 class” value is reported as “+++ (B) (at least one pIC50 measurement of greater than 7 against either ErbB2 or EGFR)”. In addition, the IC50 in experiment [2] is 100 to 1000 nM.

Regarding `COc1cc(Nc2nccc(-c3c(-c4cccc(NC(=O)c5c(F)cccc5F)c4)nn4c(C(F)(F)F)cccc34)n2)cc(OC)c1OC` [Example 151, N-[3-(3-{2-[(3,4,5-Trimethoxyphenyl)amino]-4-pyrimidinyl}-7-trifluoropyrazolo[1,5-b]pyridin-2-yl)phenyl]-2,6-difluorobenzamide], in experiment [3] (setting [4]), the “Activity (Method): pIC50 class” value is on record as “++ (A) (at least one pIC50 measurement greater than 6 against either ErbB2 or EGFR but no measurement greater than pIC50 of 7)”. Also, the IC50 in experiment [2] lay within 100 to 1000 nM.

`O=C(Nc1cccc(-c2nn3ccccc3c2-c2ccnc(Nc3ccccc3)n2)c1)c1cccs1` [Example 139]: the “Activity (Method): pIC50 class” value in experiment [3] (setting [4]) is listed as “++ (A) (at least one pIC50 measurement greater than 6 against either ErbB2 or EGFR but no measurement greater than pIC50 of 7)”. Also, in experiment [2], the IC50 lay in the range of 100 to 1000 nM.

On to `Cn1cccc1C(=O)Nc1cccc(-c2nn3ccccc3c2-c2ccnc(Nc3ccccc3)n2)c1` [Example 149, N-{3-[3-(2-phenylamino-4-pyrimidinyl)-pyrazolo[1,5-b]pyridin-2-yl]phenyl}-1-methyl-1H-pyrrole-2-carboxamide], for which the “Activity (Method): pIC50 class” value in experiment [3] (setting [4]) was “++ (A) (at least one pIC50 measurement greater than 6 against either ErbB2 or EGFR but no measurement greater than pIC50 of 7)”. In addition, the IC50 in experiment [2] fell in the range of 100 to 1000 nM.

`Cc1ccc(F)c(C(=O)Nc2cccc(-c3nn4ccccc4c3-c3ccnc(Nc4cccc(F)c4)n3)c2)c1F` [Example 72, 2,6-Difluoro-N-[3-(3-{2-[(3-fluorophenyl)amino]-4-pyrimidinyl}pyrazolo[1,5-a]pyridin-2-yl)phenyl]-3-methylbenzamide]: the “Activity (Method): pIC50 class” value in experiment [3] (setting [5]) is “++ (B) (at least one pIC50 measurement greater than 6 against either ErbB2 or EGFR but no measurement greater than pIC50 of 7)”. Besides, the IC50 in experiment [2] lay within 100 to 1000 nM.

In the case of `CN(CCCOc1ccc(N)cc1F)c1nccc(-c2c(-c3cccc(NC(=O)c4c(F)cccc4F)c3)nn3ccccc23)n1` [Example 130, N-[3-(3-{2-[{3-[(4-Amino-2-fluorophenyl)oxy]propyl}(methyl)amino]-4-pyrimidinyl}pyrazolo[1,5-a]pyridin-2-yl)phenyl]-2,6-difluorobenzamide], the “Activity (Method): pIC50 class” value in experiment [3] (setting [4]) is listed as “++ (A) (at least one pIC50 measurement greater than 6 against either ErbB2 or EGFR but no measurement greater than pIC50 of 7)”. Moreover, the IC50 in experiment [2] was > 1000 nM.
